# Legend:
# hSTING(WT) = hSTING(WT) (Homo sapiens, UniProt Q86WV6, H232R); assay: Differential scanning fluorometry (DSF) binding to purified hSTING WT; set-up: DNA encoding amino acids 140-379 (amino acid numbering corresponding to Swiss Prot Q86WV6); 6xHIS (N, cleaved yes); SUMO (N, cleaved yes); made in house; host or cells: Rosetta2 (DE3) E. coli; details: DSF, 1 mg/ml STING AA140-379, ligand 1 mM
# Method: (§1) Cells were grown in lysogeny broth at 37° C. until a […] absorbance of 0.6 was reached. […] Cell pellets were re-suspended on ice in a buffer containing 50 mM Tris hydrochloride (Tris-HCl) pH 7.5, 500 mM sodium chloride (NaCl), 20 mM imidazole, 10% glycerol, 1 mM tris(2-carboxyethyl)phosphine hydrochloride (TCEP) and protease inhibitor tablet (Pierce) (Buffer A). Cells were lysed using an S-450D sonifier (Emmerson industrial) on ice. […] Protein was aliquoted, flash frozen in liquid nitrogen and stored at −80° C. until use.
# (§2) The protein is heated in the presence of a dye that binds to and fluoresces in hydrophobic environments. The protein is thermally denatured by heating resulting in increased dye binding to the unfolded protein and fluorescence. The temperature midpoint (Tm) of a proteins denaturation is established by calculating the half maximal value of the denaturation curve. The temperature midpoint of the protein in the presence of a ligand is directly related to the affinity of the ligand for the protein and therefore its ability to stabilize the protein at higher temperatures.
# (§3) Samples were placed in hard shell PCR plate (Bio-Rad). The fluorescence as a function of temperature was recorded in a CFX 96 real time PCR machine (Bio-Rad) reading on the HEX channel, excitation 450-490, emission 560-580 nm. The temperature gradient was from 15-80° C. ramping 0.5° C. per 15 seconds and recording every 0.5° C. After subtraction of the background signal from a sample lacking protein and ligand. The midpoint temperature (Tm) was calculated by fitting the curves of the fluorescence as a function of temperature to a Boltzmann sigmoidal function (Graph Pad Prism).
# hSTING(REF) = hSTING(REF) (Homo sapiens, UniProt Q86WV6); assay: Differential scanning fluorometry (DSF) binding to purified hSTING REF allele; set-up: DNA encoding amino acids 140-379 (amino acid numbering corresponding to Swiss Prot Q86WV6); 6xHIS (N, cleaved yes); SUMO (N, cleaved yes); made in house; host or cells: Rosetta2 (DE3) E. coli; details: DSF, 1 mg/ml STING AA140-379, ligand 1 mM
# hSTING(REF), sequence (Q86WV6 140-379): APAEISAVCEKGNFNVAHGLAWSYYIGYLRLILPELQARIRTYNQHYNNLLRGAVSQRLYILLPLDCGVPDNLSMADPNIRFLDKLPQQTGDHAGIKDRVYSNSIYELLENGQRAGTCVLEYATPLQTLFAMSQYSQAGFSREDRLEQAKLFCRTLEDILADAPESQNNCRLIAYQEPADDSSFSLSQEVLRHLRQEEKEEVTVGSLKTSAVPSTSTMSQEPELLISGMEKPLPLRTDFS
# Method: as §1, §2, §3
# HAQ allele hSTING = biological target: T1, HAQ allele hSTING (Homo sapiens, UniProt Q86WV6, G230A/H232R/R293Q); assay: Differential scanning fluorometry (DSF) binding to purified hSTING HAQ allele; details: DSF, 1 mg/ml STING AA140-379, ligand 1 mM
# T1 construct: DNA encoding amino acids 140-379 (amino acid numbering corresponding to Swiss Prot Q86WV6); 6xHIS (N, cleaved yes); SUMO (N, cleaved yes); made in house; host or cells: Rosetta2 (DE3) E. coli
# T1 sequence (Q86WV6 140-379 G230A/H232R/R293Q limits assumed): as the sequence (Q86WV6 140-379) above, with G91A, H93R, R154Q counted along it
# Method: as §1, §2, §3
# hSTING HAQ allele = biological target: T2, hSTING HAQ allele (Homo sapiens, UniProt Q86WV6, G230A/H232R/R293Q/R71H); assay: IRF-3 inducible secreted luciferase reporter in THP1-Dual cells without digitonin; type: cell-based; details: without digitonin in THP1 cells (HAQ allele)
# T2 construct: a human monocyte cell line containing the hSTING HAQ allele; host or cells: THP1-Dual cells
# T2 sequence (Q86WV6 whole entry R71H/G230A/H232R/R293Q): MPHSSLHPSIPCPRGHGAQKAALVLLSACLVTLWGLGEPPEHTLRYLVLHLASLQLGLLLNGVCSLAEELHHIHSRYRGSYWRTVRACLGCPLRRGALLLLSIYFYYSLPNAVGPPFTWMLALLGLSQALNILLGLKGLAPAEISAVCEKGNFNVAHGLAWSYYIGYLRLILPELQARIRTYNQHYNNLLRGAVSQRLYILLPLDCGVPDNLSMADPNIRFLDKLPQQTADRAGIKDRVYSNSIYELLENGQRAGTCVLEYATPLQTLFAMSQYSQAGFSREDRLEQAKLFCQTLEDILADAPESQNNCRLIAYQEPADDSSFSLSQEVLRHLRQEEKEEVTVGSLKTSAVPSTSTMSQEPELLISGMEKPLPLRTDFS
# Method: After 30 minutes, cells were washed and fresh RPMI media containing 10% FBS was added, and cells were incubated at 37° C. with 5% CO2 Cell culture supernatants from each sample were collected after overnight incubation, and 10 μL of the cell culture supernatants was added to 50 μL QUANTI-Luc reagent (Invivogen). Type I interferon activation was determined by measuring secreted luciferase levels on a SpectraMax M3 spectrophotometer (Molecular Devices). The EC50 value was determined from the dose-response curve for the 10 concentrations from the serial dilution of the reference compounds and compounds of the invention tested in this assay as listed in Table 5.
# hSTING(WT), sequence (Q86WV6 140-379 H232R): as the sequence (Q86WV6 140-379) above, with H93R counted along it
SMILES,hSTING Tm Shift WT (hSTING(WT)),hSTING Tm Shift REF (hSTING(REF)),hSTING Tm Shift HAQ (HAQ allele hSTING),EC50 (hSTING HAQ allele)
"Nc1nc2c(ncn2[C@@H]2O[C@@H]3COP(=O)(O)O[C@H]4[C@@H](O)[C@H](n5cnc6c(=O)[nH]c(N)nc65)O[C@@H]4COP(=O)(O)O[C@H]3[C@H]2O)c(=O)[nH]1 [3'3'-(G)(G), cyclic-[G(3′,5′)p-G(3′,5′)p], reference compound]",6.1 °C,6.1 °C,9.97 °C,–
"Nc1ncnc2c1ncn2[C@@H]1O[C@@H]2CO[P@@](=O)(S)O[C@H]3[C@H](F)[C@H](n4cnc5c(N)ncnc54)O[C@@H]3CO[P@](=O)(S)O[C@H]2[C@@H]1F [Compound 7a, (2R,3 S,3aR,5R,7aR,9R,10S,10aR,12S,14aR)-2,9-bis(6-amino-9H-purin-9-yl)-3,10-difluoro-5,12-dimercaptooctahydro-2H,7H-difuro [3,2-d:3′,2′-j][1,3,7,9]tetraoxa[2,8]diphosphacyclododecine 5,12-dioxide]",0.1 °C,0 °C,3.1 °C,> 150 µM
"Nc1nc2c(ncn2[C@@H]2O[C@@H]3CO[P@@](=O)(S)O[C@H]4[C@@H](F)[C@H](n5cnc6c(=O)[nH]c(N)nc65)O[C@@H]4CO[P@](=O)(S)O[C@H]3[C@H]2F)c(=O)[nH]1 [Compound 17a, 9,9′-((2R,3R,3aR,5R,7aR,9R,10R,10aR,12S,14aR)-3,10-difluoro-5,12-dimercapto-5,12-dioxidooctahydro-2H,7H-difuro [3,2-d:3′,2′-j][1,3,7,9]tetraoxa[2,8]diphosphacyclododecine-2,9-diyl)bis(2-amino-1,9-dihydro-6H-purin-6-one)]",–,–,–,> 150 µM

# Results, then the compound that gave them:
hSTING Tm Shift WT (hSTING(WT)),hSTING Tm Shift REF (hSTING(REF)),hSTING Tm Shift HAQ (HAQ allele hSTING),EC50 (hSTING HAQ allele),SMILES
11.1 °C,7.2 °C,21.0 °C,28 µM,"Nc1nc2c(ncn2[C@@H]2O[C@@H]3CO[P@@](=O)(S)O[C@H]4[C@@H](O)[C@H](n5cnc6c(N)ncnc65)O[C@@H]4CO[P@@](=O)(S)O[C@H]3[C@H]2O)c(=O)[nH]1 [3'3'-RR-(G)(A), reference compound]"
9.5 °C,10.3 °C,15.3 °C,75 µM,"Nc1nc2c(ncn2[C@@H]2O[C@@H]3CO[P@@](=O)(S)O[C@H]4[C@@H](O)[C@H](n5cnc6c(=O)[nH]c(N)nc65)O[C@@H]4CO[P@@](=O)(S)O[C@H]3[C@H]2O)c(=O)[nH]1 [3'3'-RR-(G)(G), dithio-(Rp,Rp)-cyclic-[G(3′,5′)p-G(3′,5′)p], reference compound]"
3.1 °C,0.3 °C,11.2 °C,284 µM,"Nc1ncnc2c1ncn2[C@@H]1O[C@@H]2CO[P@@](=O)(S)O[C@H]3[C@H](F)[C@H](n4cnc5c(N)ncnc54)O[C@@H]3CO[P@@](=O)(S)O[C@H]2[C@@H]1F [Compound 7, (2R,3S,3aR,5R,7aR,9R,10S,10aR,12R,14aR)-2,9-bis(6-amino-9H-purin-9-yl)-3,10-difluoro-5,12-dimercaptooctahydro-2H,7H-difuro[3,2-d:3′,2′-j][1,3,7,9]tetraoxa[2,8]diphosphacyclododecine 5,12-dioxide]"
